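Method: 48-hour compound exposure of cells in 96-well plates, five concentrations, linear interpolation of endpoints. Abbreviation: GI50, concentration required for 50% inhibition of growth. TGI: concentration producing complete growth inhibition.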
How the values were obtained:
Assay in all cases: NCI anticancer screen, dose series, 48 h
[1] = tested on: HCT-116 colon
[2] = tested on: DU-145 prostate
[3] = tested on: BT-549 breast
[4] = tested on: OVCAR-5 ovarian
[5] = tested on: OVCAR-4 ovarian
[6] = tested on: UACC-257 melanoma
[7] = tested on: MDA-MB-435
[8] = tested on: T-47D breast
[9] = tested on: SNB-75 CNS
[10] = tested on: TK-10 renal
[11] = tested on: UO-31 renal
[12] = tested on: KM12 colon
[13] = tested on: HOP-62 NSCLC
[14] = tested on: MALME-3M melanoma
[15] = tested on: SK-MEL-2 melanoma
[16] = tested on: LOX IMVI melanoma
[17] = tested on: RPMI-8226 leukemia
[18] = tested on: EKVX NSCLC
[19] = tested on: SN12C renal
[20] = tested on: HOP-92 NSCLC
[21] = tested on: HCT-15 colon
[22] = tested on: SF-539 CNS
[23] = tested on: HCC-2998 colon
[24] = tested on: PC-3 prostate
[25] = tested on: HL-60(TB) leukemia
[26] = tested on: NCI-H460 lung
[27] = tested on: OVCAR-3 ovarian
[28] = tested on: HS 578T breast
[29] = tested on: CCRF-CEM leukemia
[30] = tested on: NCI/ADR-RES ovarian
[31] = tested on: 786-0 renal
[32] = tested on: ACHN renal
[33] = tested on: M14 melanoma
[34] = tested on: RXF 393 renal
[35] = tested on: OVCAR-8 ovarian
[36] = tested on: SK-MEL-5 melanoma
[37] = tested on: HT29 colon
[38] = tested on: CAKI-1 renal
[39] = tested on: MOLT-4 leukemia
[40] = tested on: NCI-H522 lung
[41] = tested on: NCI-H226 lung
[42] = tested on: A498 renal
[43] = tested on: SF-268 CNS
[44] = tested on: UACC-62 melanoma
[45] = tested on: K-562 leukemia
[46] = tested on: MCF7 breast
[47] = tested on: U251 CNS
[48] = tested on: SF-295 CNS
[49] = tested on: NCI-H23 lung
[50] = tested on: IGROV1 ovarian
[51] = tested on: SK-OV-3 ovarian
[52] = tested on: A549 NSCLC
[53] = tested on: SR leukemia
[54] = tested on: SK-MEL-28 melanoma
[55] = tested on: SW-620 colon
[56] = tested on: SNB-19 CNS
[57] = tested on: COLO 205 colon
[58] = tested on: MDA-MB-231 breast

CCO/C=N/C1=C(C#N)C(c2ccc(F)cc2)c2sc3c(C)cccc3c2O1 (stereo unspecified)
GI50 [1]: 0.375 µM | TGI [1]: 10.4 µM | GI50 [2]: 0.434 µM | TGI [2]: 14.2 µM | GI50 [3]: 0.751 µM | TGI [3]: 5.63 µM | GI50 [4]: 0.574 µM | TGI [4]: 16.4 µM | GI50 [5]: 1.7 µM | TGI [5]: 24.8 µM | GI50 [6]: 12.9 µM | TGI [6]: 35.6 µM | GI50 [7]: 0.178 µM | TGI [7]: 0.609 µM | GI50 [8]: 0.818 µM | TGI [8]: 66.9 µM | GI50 [9]: 0.114 µM | TGI [9]: 2.64 µM | GI50 [10]: 11.8 µM | TGI [10]: 27.5 µM | GI50 [11]: 0.572 µM | TGI [11]: 15.9 µM | GI50 [12]: 0.389 µM | TGI [12]: 14.7 µM | GI50 [13]: 0.423 µM | TGI [13]: 15.8 µM | GI50 [14]: 10.6 µM | TGI [14]: 24.8 µM | GI50 [15]: 0.726 µM | TGI [15]: 20.7 µM | GI50 [16]: 0.626 µM | TGI [16]: 14.1 µM | GI50 [17]: 0.371 µM | TGI [17]: 11 µM | GI50 [18]: 0.383 µM | TGI [18]: 18.3 µM | GI50 [19]: 0.534 µM | TGI [19]: 13.9 µM | GI50 [20]: 0.624 µM | TGI [20]: 8 µM | GI50 [21]: 0.336 µM | TGI [21]: 11.5 µM | GI50 [22]: 0.243 µM | TGI [22]: 1.54 µM | GI50 [23]: 0.421 µM | TGI [23]: 12.9 µM | GI50 [24]: 0.386 µM | TGI [24]: 14.8 µM | GI50 [25]: 0.34 µM | TGI [25]: 12.9 µM | GI50 [26]: 0.367 µM | TGI [26]: 11.1 µM | GI50 [27]: 0.379 µM | TGI [27]: 11.9 µM | GI50 [28]: 0.325 µM | TGI [28]: 14.8 µM | GI50 [29]: 0.359 µM | TGI [29]: 21.3 µM | GI50 [30]: 0.22 µM | TGI [30]: 12.7 µM | GI50 [31]: 0.614 µM | TGI [31]: 12.9 µM | GI50 [32]: 0.616 µM | TGI [32]: 14.6 µM | GI50 [33]: 0.316 µM | TGI [33]: 12.2 µM | GI50 [34]: 0.175 µM | TGI [34]: 0.55 µM | GI50 [35]: 0.499 µM | TGI [35]: 20.3 µM | GI50 [36]: 0.487 µM | TGI [36]: 2.53 µM | GI50 [37]: 0.389 µM | TGI [37]: 12.6 µM | GI50 [38]: 0.386 µM | TGI [38]: 17.2 µM | GI50 [39]: 0.56 µM | TGI [39]: 32.2 µM | GI50 [40]: 0.214 µM | TGI [40]: 11.7 µM | GI50 [41]: 1.29 µM | TGI [41]: 12.1 µM | GI50 [42]: 0.261 µM | TGI [42]: 1.48 µM | GI50 [43]: 1.74 µM | TGI [43]: 17.3 µM | GI50 [44]: 0.404 µM | TGI [44]: 19.5 µM | GI50 [45]: 0.281 µM | TGI [45]: > 62.1 µM | GI50 [46]: 0.271 µM | TGI [46]: 13.1 µM | GI50 [47]: 0.473 µM | TGI [47]: 15.5 µM | GI50 [48]: 0.25 µM | TGI [48]: 2.8 µM | GI50 [49]: 0.517 µM | TGI [49]: 14.7 µM | GI50 [50]: 0.379 µM | TGI [50]: 14.9 µM | GI50 [51]: 0.834 µM | TGI [51]: 25.5 µM | GI50 [52]: 0.458 µM | TGI [52]: 18.7 µM | GI50 [53]: 0.524 µM | TGI [53]: 60.1 µM | GI50 [54]: 1.4 µM | TGI [54]: 20.6 µM | GI50 [55]: 0.401 µM | TGI [55]: 15.8 µM | GI50 [56]: 0.452 µM | TGI [56]: 16.5 µM | GI50 [57]: 0.401 µM | TGI [57]: 2.25 µM | GI50 [58]: 0.531 µM | TGI [58]: 17.6 µM

— PubChem BioAssay (NCI)
